Laboratory results: patent US7842691B2, “Method for the treatment of myelodysplastic syndromes using cyclopropanecarboxylic acid {2-[1-(3-ethoxy-4-methoxy-phenyl)-2-methanesulfonyl-ethyl]-3-OXO-2,3-dihydro-1 H-isoindol-4-yl}-amide” (Celgene Corporation, priority 2003, dated 2010)

Tests used:
[1] = tested on: production of various cytokines; test: In vitro pharmacology studies, effects on production of various cytokines, activity comparison with thalidomide; assay type: cell-based, human
Method: The pharmacological properties of 3-(3,4-dimethoxy-phenyl)-3-(1-oxo-1,3-dihydro-isoindol-2-yl)-propionamide, including activity comparisons with thalidomide, are characterized in in vitro studies. Studies examine the effects of 3-(3,4-dimethoxy-phenyl)-3-(1-oxo-1,3-dihydro-isoindol-2-yl)-propionamide on the production of various cytokines. In addition, a safety pharmacology study of -(3,4-dimethoxy-phenyl)-3-(1-oxo-1,3-dihydro-isoindol-2-yl)-propionamide is conducted in dogs and the effects of the compound on ECG parameters are examined further as part of three repeat-dose toxicity studies in primates.
Inhibition of TNF-α production following LPS-stimulation of human PBMC and human whole blood by 3-(3,4-dimethoxy-phenyl)-3-(1-oxo-1,3-dihydro-isoindol-2-yl)-propionamide is investigated in vitro (Muller et al., Bioorg. Med. Chem. Lett. 9:1625-1630, 1999). The IC50's of 3-(3,4-dimethoxy-phenyl)-3-(1-oxo-1,3-dihydro-isoindol-2-yl)-propionamide for inhibiting production of TNF-α following LPS-stimulation of PBMC and human whole blood is measured.
(§1) The pharmacological effects of 3-(3,4-dimethoxy-phenyl)-3-(1-oxo-1,3-dihydro-isoindol-2-yl)-propionamide derive from its action as an inhibitor of cellular response to receptor-initiated trophic signals (e.g., IGF-1, VEGF, cyclooxygenase-2), and other activities.

AML cells = test: Mitogenic response to VEGF in AML cells (ligand-induced Akt-phosphorylation); assay type: cell-based; details: by extinguishing ligand-induced Akt-phosphorylation
Excerpt: as §1

[2] = tested on: MDS bone marrow progenitor formation; test: MDS vs normal bone marrow progenitor formation in pre-clinical models; assay type: cell-based
Excerpt: as §1

MDS patients = details: cited from earlier work; for granulocytopoiesis in treated patients / improvement in hemoglobin or platelet counts: clinical trials of MDS patients

Molecule	granulocytopoiesis in treated patients (MDS patients)	improvement in hemoglobin or platelet counts (MDS patients)	other results
COc1ccc(C(CC(N)=O)N2Cc3ccccc3C2=O)cc1OC (centres unmarked) [3-(3,4-dimethoxy-phenyl)-3-(1-oxo-1,3-dihydro-isoindol-2-yl)-propionamide]	–	–	generation of inflammatory cytokines [1]: suppresses the generation of inflammatory cytokines; mitogenic response to VEGF (AML cells): abrogates mitogenic response to VEGF in AML cells; MDS vs normal bone marrow progenitor formation [2]: selectively suppresses MDS vs normal bone marrow progenitor formation
erythropoietin [recombinant human EPO]	–	–	patients with sustained improvement in hemoglobin or decrease in transfusion requirement (MDS patients; MDS patients treated with recombinant human EPO): less than 25 % of patients
granulocyte macrophage colony stimulating factor [GM-CSF]	can restore granulocytopoiesis	little or no improvement	–
granulocyte colony stimulating factor (protein, UniProt P09919 31-207, looked up, granulocyte colony stimulating factor, recombinant human) Granulocyte …: TPLGPASSLPQSFLLKCLEQVRKIQGDGAALQEKLVSECATYKLCHPEELVLLGHSLGIPWAPLSSCPSQALQLAGCLSQLHSGLFLYQGLLQALEGISPELGPTLDTLQLDVADFATTIWQQMEELGMAPALQPTQGAMPAFASAFQRRAGGVLVASHLQSFLEVSYRVLRHLAQP	can restore granulocytopoiesis	little or no improvement	–
